# Measurements: paper PMC11149917, “Translational and Therapeutic Evaluation of RAS-GTP Inhibition by RMC-6236 in RAS-Driven Cancers” (Cancer Discovery, 2024)
# Tested on: PRISM panel of 845 cancer cell lines
# Assay: PRISM assay
# Type: cell-based, human
# Method: The PRISM cell set comprised 845 cell lines representing more than 45 lineages (see Supplementary Table S1 for cell line information), which largely overlapped with the Cancer Cell Line Encyclopedia; https://portals.broadinstitute.org/ccle). Cell lines were grown in RPMI without phenol red and supplemented with 10% or 20% FBS for adherent and suspended lines, respectively. Parental cell lines were stably infected with a unique 24-nucleotide DNA barcode via lentiviral transduction and blasticidin selection. After selection, barcoded cell lines were expanded and subjected to quality control (Mycoplasma contamination test, an SNP test for confirming cell line identity, and barcode ID confirmation). Approved cell lines were then pooled (20–25 cell lines per pool) based on doubling time similarity and frozen in assay-ready vials.
# RMC-6236 was added to 384-well plates at 8-point concentration with 3-fold dilutions in triplicate. These assay-ready plates were then seeded with the thawed cell line pools. Adherent cell pools were plated at 1,250 cells per well, whereas suspension and mixed adherent/suspension pools were plated at 2,000 cells per well. Treated cells were incubated for 5 days, and then lysed. Lysate plates were collapsed together prior to barcode amplification and detection.
# Each cell line's unique barcode is located in the 3′UTR of the blasticidin-resistance gene and therefore is expressed as mRNA. Total mRNA was captured using magnetic particles that recognize polyA sequences. Captured mRNA was reverse-transcribed into cDNA and then the sequence containing the unique PRISM barcode was amplified using PCR. Finally, Luminex beads that recognize the specific barcode sequences in the cell set were hybridized to the PCR products and detected using a Luminex scanner which reports the signal as a median fluorescent intensity (MFI).
# • Each detection well contained 10 control barcodes in increasing abundances as spike-in controls. For each plate, we first create a reference profile by calculating the median of the log2(MFI) values across negative control wells for each of these spiked-in barcodes. • For each well, a monotonic smooth p-spline was fitted to map the spike-in control levels to the reference profile. Next, we transform the log2(MFI) for each cell barcode using the fitted spline to allow well-to-well comparisons by correcting for amplification and detection artifacts. • Next, the separability between negative and positive control treatments was assessed. In particular, we calculated the error rate of the optimum simple threshold classifier between the control samples for each cell line and plate combination. The error rate is a measure of the overlap of the two control sets and was defined as error = (FP + FN)/n, where FP is false positives, FN is false negatives, and n is the total number of controls. A threshold was set between the distributions of positive and negative control log2(MFI) values (with everything below the threshold said to be positive and above said to be negative) such that this value is minimized. Additionally, we also calculated the dynamic range of each cell line. […] Additionally, any cell line that had less than 2 passing replicates was also omitted for the sake of reproducibility. Finally, we computed viability by normalizing with respect to the median negative control for each plate.
# For every gene with nonsilent mutations in at least four cell lines, we compared the AUC values between cells with and without those mutations using a t test. This analysis was carried out for (i) the full data set; (ii) excluding cell lines with nonsilent KRAS mutations; and (iii) excluding cell lines that have either KRAS or NRAS nonsilent mutations.
structure (smiles),measurement,setting,value
CCn1c(-c2cc(N3CCN(C)CC3)cnc2[C@H](C)OC)c2c3cc(ccc31)-c1csc(n1)C[C@H](NC(=O)[C@H]1C[C@@H]1C)C(=O)N1CCC[C@H](N1)C(=O)OCC(C)(C)C2 [RMC-6236],RMC-6236: RevMed PRISM: AUC,LS_AUTONOMIC_GANGLIA,1
same,RMC-6236: RevMed PRISM: AUC,"MCAS_OVARY, KRAS p.G12D",0.5822
same,RMC-6236: RevMed PRISM: AUC,MDAMB361_BREAST,0.8463
same,RMC-6236: RevMed PRISM: AUC,MG63_BONE,0.9083
same,RMC-6236: RevMed PRISM: AUC,"MIAPACA2_PANCREAS, KRAS p.G12C",0.3158
same,RMC-6236: RevMed PRISM: AUC,MKN1_STOMACH,0.8375
same,RMC-6236: RevMed PRISM: AUC,MMNK1_BILIARY_TRACT,1
same,RMC-6236: RevMed PRISM: AUC,MOLP2_HAEMATOPOIETIC_AND_LYMPHOID_TISSUE,0.8941
same,RMC-6236: RevMed PRISM: AUC,"NCIH1373_LUNG, KRAS p.G12C",0.5175
same,RMC-6236: RevMed PRISM: AUC,NCIH1623_LUNG,0.9336
same,RMC-6236: RevMed PRISM: AUC,"NCIH1792_LUNG, KRAS p.G12C",0.4194
same,RMC-6236: RevMed PRISM: AUC,"NCIH1944_LUNG, KRAS p.G13D",0.6749
same,RMC-6236: RevMed PRISM: AUC,NCIH2110_LUNG,0.7265
same,RMC-6236: RevMed PRISM: AUC,NCIH2170_LUNG,0.8266
same,RMC-6236: RevMed PRISM: AUC,"NOZ_LIVER, KRAS p.G12V",0.4128
same,RMC-6236: RevMed PRISM: AUC,NP3_CENTRAL_NERVOUS_SYSTEM,0.8074
same,RMC-6236: RevMed PRISM: AUC,NUGC4_STOMACH,0.5513
same,RMC-6236: RevMed PRISM: AUC,OE21_OESOPHAGUS,0.7641
same,RMC-6236: RevMed PRISM: AUC,OSRC2_KIDNEY,0.9503
same,RMC-6236: RevMed PRISM: AUC,OVKATE_OVARY,0.9428
same,RMC-6236: RevMed PRISM: AUC,"PL21_HAEMATOPOIETIC_AND_LYMPHOID_TISSUE, KRAS p.A146V",0.4905
same,RMC-6236: RevMed PRISM: AUC,"PSN1_PANCREAS, KRAS p.G12R",0.3382
same,RMC-6236: RevMed PRISM: AUC,RDES_BONE,0.8941
same,RMC-6236: RevMed PRISM: AUC,RERFLCKJ_LUNG,0.8815
same,RMC-6236: RevMed PRISM: AUC,"RKN_SOFT_TISSUE, KRAS p.G12V",0.3219
same,RMC-6236: RevMed PRISM: AUC,RL_HAEMATOPOIETIC_AND_LYMPHOID_TISSUE,0.8075
same,RMC-6236: RevMed PRISM: AUC,SKES1_BONE,0.8643
same,RMC-6236: RevMed PRISM: AUC,SKGT2_STOMACH,0.6916
same,RMC-6236: RevMed PRISM: AUC,SKHEP1_LIVER,0.8776
same,RMC-6236: RevMed PRISM: AUC,"SNU601_STOMACH, KRAS p.G12D",0.4515
same,RMC-6236: RevMed PRISM: AUC,SNU1076_UPPER_AERODIGESTIVE_TRACT,0.4839
same,RMC-6236: RevMed PRISM: AUC,SNU1079_BILIARY_TRACT,0.8678
same,RMC-6236: RevMed PRISM: AUC,SR786_HAEMATOPOIETIC_AND_LYMPHOID_TISSUE,0.7042
same,RMC-6236: RevMed PRISM: AUC,SUDHL4_HAEMATOPOIETIC_AND_LYMPHOID_TISSUE,0.8448
same,RMC-6236: RevMed PRISM: AUC,SUDHL8_HAEMATOPOIETIC_AND_LYMPHOID_TISSUE,1
same,RMC-6236: RevMed PRISM: AUC,"SUIT2_PANCREAS, KRAS p.G12D",0.6849
same,RMC-6236: RevMed PRISM: AUC,"SW626_LARGE_INTESTINE, KRAS p.G12V",0.3255
same,RMC-6236: RevMed PRISM: AUC,"SW1271_LUNG, NRAS p.Q61R",0.6986
same,RMC-6236: RevMed PRISM: AUC,TC106_BONE,0.7285
same,RMC-6236: RevMed PRISM: AUC,TE8_OESOPHAGUS,0.7048
same,RMC-6236: RevMed PRISM: AUC,TT_THYROID,1
same,RMC-6236: RevMed PRISM: AUC,U2973_HAEMATOPOIETIC_AND_LYMPHOID_TISSUE,1
same,RMC-6236: RevMed PRISM: AUC,UMUC6_URINARY_TRACT,0.4621
same,RMC-6236: RevMed PRISM: AUC,UMUC10_URINARY_TRACT,0.7756
same,RMC-6236: RevMed PRISM: AUC,UMUC11_URINARY_TRACT,0.952
same,RMC-6236: RevMed PRISM: AUC,VAL_HAEMATOPOIETIC_AND_LYMPHOID_TISSUE,0.8667
same,RMC-6236: RevMed PRISM: AUC,YD10B_UPPER_AERODIGESTIVE_TRACT,0.5303
same,RMC-6236: RevMed PRISM: AUC,YD38_UPPER_AERODIGESTIVE_TRACT,0.4476
same,RMC-6236: RevMed PRISM: AUC,[…]02ER_ENDOMETRIUM,0.8144
same,Median AUC (PRISM),mutant copy number gained KRAS,0.54
same,Median AUC (PRISM),wild-type KRAS cell lines,0.78
same,Median AUC (PRISM),wild-type copy number gained KRAS,0.84
